In patent US10308631B2, “Selective anti-cancer compounds” (NATIONAL UNIVERSITY OF SINGAPORE, priority 2015, dated 2019):

Tests used:
[1] = tested on: LC3 (LC3-II/LC3-I) in HeLa cells; experiment: Immunoblot analysis of LC3 in HeLa cells; assay type: cell-based, human; settings: 0.625-10 μM, 6 h
Procedure: (§1) FIG. 1 is a diagrammatic representation of an immunoblot analysis showing the dual inhibition of the autophagic process and mitotic progression by Compound 1 (a131). HeLa cells were treated with the indicated μM concentration of Compound 1 (a131) or chloroquine for 6 h. Cells were harvested and total lysates were analysed by detecting the mitotic marker phospho-histone H3 at serine 10 (pH3 (Ser10)) and the autophagosome marker LC3. The band intensity ratios of LC3-II/LC3-I as compared to DMSO control (lane 1, 0 μM chloroquine, and lane 7, 0 μM a131) are indicated (Ratio). Antibodies raised against β-actin were used as an internal loading control.
(§2) The ability of Compound 1 to inhibit lysosome function was examined using immunoblotting. HeLa cervical cancer cells were cultured in Dulbecco's modified Eagle's medium (DMEM) supplemented with 10% Fetal Bovine Serum (FBS, Thermo Scientific). […]
(§3) Defects in lysosome function and inhibition of autophagy can be measured by accumulation of LC3-phosphatidylethanolamine conjugated non-soluble form (LC3-II), which are converted from soluble LC3-I. Thus, antibodies raised against LC3 (Cell Signaling, Cat#4108) were used to determine lysosomal function and integrity. […] The inhibitory ability of Compound 1 was also quantitatively compared to CQ.

[2] = tested on: phospho-histone H3 (pH3) in HeLa cells; experiment: Immunoblot analysis of phospho-histone H3 in HeLa cells; assay type: cell-based, human; settings: 6 h
Procedure: as §1, §2, §3

[3] = tested on: cancer cell lines (panel of thirty); experiment: MTT growth inhibition, mean over cancer cell line panel; assay type: cell-based; settings: Homo sapiens, 72 h
Procedure: FIG. 7 is a graphical representation showing that Compound 1 (a131) induces selective cell growth inhibitory effects in a broad spectrum of human cancer cells. A panel of cancer and normal cell lines were treated with Compound 1 (a131) for 72 h and a mean G150 value (the concentration required to achieve 50% growth inhibition) was determined. A Student's t-test indicated a statistically significant difference at p<0.05 (p=0.017) between normal cells and cancer cells treated with Compound 1 (a131). […]
The MTT assay was performed by adding thiazolyl blue tetrazolium bromide (MTT reagent, Invitrogen) at a concentration of 0.5 mg/mL to each cell culture and the resulting mixture incubated for 4 h at 37° C. […] The absorbance of each well at 540 nm and 660 nm was measured using a microplate reader (Benchmark plus, BIO-RAD). The optical density (OD) values were calculated by subtracting the absorbance at 660 nm from the absorbance at 540 nm. […]

[4] = tested on: p53 and p21 in non-transformed BJ cells; experiment: Immunoblot analysis of p53 and p21; assay type: cell-based, human; settings: 2.5 and 5 μM, 24 h or 48 h
Procedure: (§4) A: is output from a FACS analysis of isogenic-non-transformed, without (panels a-c) (WT) or with (panels d-f) shRNA-mediated knockdown of p53 (p53KD), and oncogene-transformed BJ cells (panels g-i), each treated with 0, 5 or 2.5 μM Compound 1 (a131) for 24 h. Cells were doubly stained with PI (horizontal axis) and BrdU (vertical axis). The BrdU-positive population in panels a-c are indicated as arrows. B: is a diagrammatic representation of an immunoblot analysis showing isogenic non-transformed (normal) and oncogene-transformed BJ cells (transformed) treated with Compound 1 (a131) at 0, 2.5 or 5 μM for 24 h or 48 h. Cells were harvested and total lysates were analysed by detecting p53 and p21. Antibodies raised against β-actin were used as an internal loading control. C and D are histograms showing the percentage of bromodeoxyuracil (BrdU)-positive non-transformed (normal) BJ cells. C: Cells were treated with Group 1 Compound 1 (a131) at 2.5 and 5 μM, Compound 23 (b36) at 2.5 and 5 μM, and Compound 21 (b35) at 5 μM, and Group 2 Compound 25 (a166) at 2.5 and 5 μM, for 24 h. Cells were doubly stained with propidium iodide (PI) and BrdU, and subjected to FACS analysis. The BrdU-positive population are plotted as bars. […]

[5] = tested on: p53 and p21 in oncogene-transformed BJ cells; experiment: Immunoblot analysis of p53 and p21; assay type: cell-based, human; settings: 2.5 and 5 μM, 24 h or 48 h
Procedure: as §4

Question: Which “levels of LC3-II” value [1] does the source give for N#C/C(=C\c1cccc2cnccc12)c1c[nH]c2ccccc12 [Compound 1, (Z)-2-(1H-indol-3-yl)-3-(isoquinolin-5-yl)acrylonitrile] here?
Answer: markedly increased the levels of LC3-II

Question: And the “inhibition of mitotic progression (levels of phospho-histone H3)” value [2]?
Answer: potently inhibits mitotic progression

Question: What about the GI50 [3] of the same compound?
Answer: 1700 nM

Question: What about the “protein levels of p53 and p21” value [4] of the same compound?
Answer: increased protein levels of p53

Question: What about the “protein expression levels of p53 and p21” value [5] of the same compound?
Answer: did not alter the protein expression levels of p53 and p21
